The target of assay [1] is T1, Arabidopsis HPPD variant M335H, P336A, E363Q (Arabidopsis thaliana, UniProt P93836, E363Q/M335H/P336A).
T1 construct: PCR-based site directed mutagenesis of pEXP5-NT/TOPO®-AtHPPD is done; His6 (N); made in house; host or cells: E. coli BL21 (DE3)
The assay is described as follows: HPPD activity assay, Arabidopsis HPPD mutant M335H, P336A, E363Q. Type of assay: biochemical. Particulars: normalized on Arabidopsis wild-type HPPD. On the procedure: HPPD produces homogentisic acid and CO2 from 4-hydroxyphenylpyruvate (4-HPP) and O2. The activity assay for HPPD is based on the analysis of homogentisic acid by reversed phase HPLC.
The assay mixture can contain 150 mM potassium phosphate buffer pH 7.0, 50 mM L-ascorbic acid, 1 μM FeSO4 and 7 μg of purified enzyme in a total volume of 1 ml.
Inhibitors are dissolved in DMSO (dimethylsulfoxide) to a concentration of 20 mM or 0.5 mM, respectively. From this stock solution serial five-fold dilutions are prepared in DMSO, which are used in the assay. The respective inhibitor solution accounts for 1% of the assay volume. […] After a preincubation of 30 min the reaction is started by adding 4-HPP to a final concentration of 0.1 mM. The reaction is allowed to proceed for 120 min at room temperature. The reaction is stopped by addition of 100 μl of 4.5 M phosphoric acid.
Activities are normalized by setting the uninhibited enzyme activity to 100%. IC50 values are calculated using non-linear regression.
The assay mixture can contain 150 mM potassium phosphate buffer pH 7.0, 50 mM L-ascorbic acid, 100 μM Catalase (Sigma-Aldrich), 1 μM FeSO4 and 0.2 units of purified HPPD enzyme in a total volume of 505 μl. 1 unit is defined as the amount of enzyme that is required to produce 1 nmol of HGA per minute at 20° C.
Inhibitors are dissolved in DMSO (dimethylsulfoxide) to a concentration of 0.5 mM. […] IC50 values are calculated using non-linear regression. […]
Purified, mutant HPPD enzymes are obtained by the methods described above. […] Apparent michaelis constants (Km) and maximal reaction velocities (Vmax) are calculated by non-linear regression with the software GraphPad Prism 5 (GraphPad Software, La Jolla, USA) using a substrate inhibition model.
Field performance of the optimized HPPD enzyme, which is used as a herbicide tolerance trait may depend not only on its lack of sensitivity towards HPPD inhibiting herbicides but also on its activity. To assess the potential performance of a herbicide tolerance trait a tolerance index (TI) is calculated using the following formula: […]

Assay [2] concerns Arabidopsis wildtype control plants. The assay is described as follows: Arabidopsis growth inhibition in 48-well plates, wildtype control. Type of assay: in vivo, Arabidopsis thaliana. Particulars: plant growth IC50 of line divided by that of wildtype plants. On the procedure:
Depending on the species, the plants are kept at 10-25° C. or 20-35° C. The test period extends over 3 weeks. During this time, the plants are tended and their response to the individual treatments is evaluated. Herbicide injury evaluations are taken at 2 and 3 weeks after treatment. Plant injury is rated on a scale of 0 to 9, 0 being no injury and 9 being complete death. Tolerance to coumarone-derivative herbicides can also be assessed in Arabidopsis. In this case transgenic Arabidopsis thaliana plants are assayed for improved tolerance to coumarone-derivative herbicides in 48-well plates. Seeds are surface sterilized by stirring for 5 min in ethanol+water (70+30 by volume), rinsing one time with ethanol+water (70+30 by volume) and two times with a sterile, deionized water. The seeds are resuspended in 0.1% agar dissolved in water (w/v). Four to five seeds per well are plated on solid nutrient medium consisting of half-strength Murashige Skoog nutrient solution, pH 5.8 (Murashige and Skoog (1962) Physiologia Plantarum 15: 473-497). […] Seven to ten days after seeding growth inhibition is evaluated by comparison to wild type plants. Tolerance factor is calculated by dividing the plant growth IC50 value of transgenic plants containing a HPPD and/or HST sequence by that of wildtype plants. […]

T1 sequence (P93836 whole entry M335H/P336A/E363Q): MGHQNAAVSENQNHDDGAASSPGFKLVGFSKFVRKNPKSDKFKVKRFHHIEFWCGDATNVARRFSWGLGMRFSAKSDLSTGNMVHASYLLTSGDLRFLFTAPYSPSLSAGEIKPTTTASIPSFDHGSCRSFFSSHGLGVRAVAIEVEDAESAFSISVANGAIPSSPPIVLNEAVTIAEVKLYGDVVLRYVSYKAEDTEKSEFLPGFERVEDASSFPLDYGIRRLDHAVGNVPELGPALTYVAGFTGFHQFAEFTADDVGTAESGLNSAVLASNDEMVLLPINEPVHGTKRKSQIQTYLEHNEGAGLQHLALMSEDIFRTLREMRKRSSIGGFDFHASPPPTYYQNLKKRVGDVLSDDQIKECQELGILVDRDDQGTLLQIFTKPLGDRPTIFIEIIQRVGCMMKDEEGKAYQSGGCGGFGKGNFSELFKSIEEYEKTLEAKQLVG

Consider `CC1=NOC(c2c(Cl)ccc(C3=C(O)c4ncccc4C(C)(C)S3(=O)=O)c2Cl)C1` (stereo not shown) [Inhibitor 1, 7-[2,4-dichloro-3-(3-methyl-4,5-dihydroisoxazol-5-yl)phenyl]-5,5-dimethyl-6,6-dioxo-thiopyrano[4,3-b]pyridin-8-ol], for which the “Normalized tolerance index TI” value in assay [1] is listed as 5.5. For the same molecule, the Tolerance factor in assay [2] is recorded as 1.

With `COCCOCc1c(Cl)ccc(C2=C(O)c3ncccc3C(C)(C)S2(=O)=O)c1Cl` [Inhibitor 3, 7-[2,4-dichloro-3-(2-methoxyethoxymethyl)phenyl]-5,5-dimethyl-6,6-dioxo-thiopyrano[4,3-b]pyridin-8-ol], the “Normalized tolerance index TI” value in assay [1] is recorded as 0.3.

In assay [2], `CC1(C)c2cccnc2C(O)=C(c2ccc(Cl)nc2Cl)S1(=O)=O` [Inhibitor 2, 7-(2,6-dichloro-3-pyridyl)-5,5-dimethyl-6,6-dioxo-thiopyrano[4,3-b]pyridin-8-ol] came in with a Tolerance factor of 1.
